Results on two compounds are retold here after patent US12497530B2, “Active energy ray polymerization initiator, active energy ray curing composition, active energy ray curing ink, aqueous active energy ray curing ink, container, image forming device, image forming method, and method of manufacturing active energy ray polymerization initiator” (Ricoh Company, Ltd., priority 2021, dated 2025).

The data set is described as follows: Absorption spectrum in methylene chloride at 50 ppm. It is filed as physicochemical. Conditions: for Absorption of light (absorption spectrum): methylene chloride, 50 ppm, FIGS. 1 to 4. The method, then:
One way of measuring the λmax of an active energy ray polymerization initiator is to dissolve an active energy ray polymerization initiator in methylene chloride at 50 ppm followed by measuring the absorption spectrum of this solution by a spectrophotometer for ultraviolet, visible light, and near infrared, V-680, manufactured by JASCO Corporation.
The absorption spectrum was measured by a spectrophotometer V-680 for UV, visible light, and near IR, manufactured by JASCO Corporation.
The absorption spectra of the active energy ray polymerization initiators Ref-1, Ref-2, and Ref-4 were measured as described above.

As for `CC(C)(O)C(=O)c1ccccc1` [Ref-4, 2-Hydroxy-2-methyl-1-phenylpropane-1-one], the “Absorption of light (absorption spectrum)” value was “does not absorb light having a wavelength of 350 nm or greater at all”.

With `CCCCCCCCCCCCOc1ccc2sc3ccccc3c(=O)c2c1` [Ref-1, 2-dodecyloxy thioxanthone], the “Absorption of light (absorption spectrum)” value was “fully absorb light having a wavelength of 400 nm or less”. In addition, the “Support of LED light source of 365 nm, 385 nm, and 395 nm” value (judged from absorption spectrum) was “support an LED light source of 365 nm, 385 nm, and 395 nm”.
